Values quoted from earlier work, collected in patent US20190358206A1, “TOPICAL FORMULATIONS OF BIARYL HETEROCYCLIC COMPOUNDS AND METHODS OF USE THEREOF” (Melinta Subsidiary Corp., priority 2016, published 2019).

Test system: intracellular S. aureus (including linezolid-resistant), Listeria monocytogenes and Legionella pneumophila
Conditions: cited from earlier work

For `CC(=O)NC[C@H]1CN(c2ccc(-c3ccc(CNCc4cnn[nH]4)cc3)c(F)c2)C(=O)O1` [Radezolid, N-[3-(2-Fluoro-4′-{[(1H-[1,2,3]triazol-4-ylmethyl)-amino]-methyl}-biphenyl-4-yl)-2-oxo-oxazolidin-5-(S)-ylmethyl]-acetamide], the intracellular killing is listed as “kills intracellular S. aureus (including linezolid-resistant), Listeria monocytogenes and Legionella pneumophila”.
